Source: patent US9580390B2, “Indazole compounds as kinase inhibitors and method of treating cancer with same” (University Health Network, priority 2011, dated 2017)

System: colon cancer cells (HCT116)
Test: Cancer cell line growth inhibition (SRB assay)
Format: cell-based
Conditions: Homo sapiens, HCT-116; HCT116 colon cancer cells, SRB assay; read-out: Cancer Cell Line GI50 Range HCT116

O=C(Nc1ccc2[nH]nc(-c3cccc(CN4CCOCC4)c3)c2c1)C(c1ccsc1)N1CCCC1 (centres unmarked) [Example A1, N-(3-(3-(morpholinomethyl)phenyl)-1H-indazol-5-yl)-2-(pyrrolidin-1-yl)-2-(thiophen-3-yl)acetamide]
GI50: > 500 nM

CN1CCN(c2ccc(-c3n[nH]c4ccc(NC(=O)C(c5ccsc5)N5CCCC5)cc34)cc2)CC1 (centres unmarked) [Example A2, N-(3-(4-(4-methylpiperazin-1-yl)phenyl)-1H-indazol-5-yl)-2-(pyrrolidin-1-yl)-2-(thiophen-3-yl)acetamide]
GI50: < 100 nM

O=C(Nc1ccc2[nH]nc(-c3ccc(CN4CCOCC4)cc3)c2c1)C(c1ccsc1)N1CCCC1 (centres unmarked) [Example A3, N-(3-(4-(morpholinomethyl)phenyl)-1H-indazol-5-yl)-2-(pyrrolidin-1-yl)-2-(thiophen-3-yl)acetamide]
GI50: 100 to 500 nM

CN(C)CCOc1ccc(-c2n[nH]c3ccc(NC(=O)C(c4ccsc4)N4CCCC4)cc23)cc1 (centres unmarked) [Example A5, N-(3-(4-(2-(dimethylamino)ethoxy)phenyl)-1H-indazol-5-yl)-2-(pyrrolidin-1-yl)-2-(thiophen-3-yl)acetamide]
GI50: < 100 nM

O=C(Nc1ccc2[nH]nc(-c3ccc(CCN4CCOCC4)cc3)c2c1)C(c1ccsc1)N1CCCC1 (centres unmarked) [Example A6, N-(3-(4-(2-morpholinoethyl)phenyl)-1H-indazol-5-yl)-2-(pyrrolidin-1-yl)-2-(thiophen-3-yl)acetamide]
GI50: 100 to 500 nM

COc1cc(-c2n[nH]c3ccc(NC(=O)C(c4ccsc4)N4CCCC4)cc23)ccc1OC1CCNCC1 (centres unmarked) [Example A8, N-(3-(3-methoxy-4-(piperidin-4-yloxy)phenyl)-1H-indazol-5-yl)-2-(pyrrolidin-1-yl)-2-(thiophen-3-yl)acetamide]
GI50: < 100 nM

COc1cc(-c2n[nH]c3ccc(NC(=O)C(c4ccsc4)N4CCCC4)cc23)ccc1N1CCN(C)CC1 (centres unmarked) [Example A10, N-(3-(3-methoxy-4-(4-methylpiperazin-1-yl)phenyl)-1H-indazol-5-yl)-2-(pyrrolidin-1-yl)-2-(thiophen-3-yl)acetamide]
GI50: 100 to 500 nM

CN1CCN(c2ccc(-c3n[nH]c4ccc(NC(=O)C5CCCc6ccccc65)cc34)cc2)CC1 (centres unmarked) [Example A11, N-(3-(4-(4-methylpiperazin-1-yl)phenyl)-1H-indazol-5-yl)-1,2,3,4-tetrahydronaphthalene-1-carboxamide]
GI50: 100 to 500 nM

COc1cc(-c2n[nH]c3ccc(C(=O)NC(c4ccccc4)C4CC4)cc23)ccc1OC1CCNCC1 (centres unmarked) [Example A13, N-(cyclopropyl(phenyl)methyl)-3-(3-methoxy-4-(piperidin-4-yloxy)phenyl)-1H-indazole-5-carboxamide]
GI50: 100 to 500 nM

CN1CCc2cc(-c3n[nH]c4ccc(NC(=O)C(c5ccsc5)N5CCCC5)cc34)ccc21 (centres unmarked) [Example A16, N-(3-(1-methylindolin-5-yl)-1H-indazol-5-yl)-2-(pyrrolidin-1-yl)-2-(thiophen-3-yl)acetamide]
GI50: 100 to 500 nM

CN1CCOc2cc(-c3n[nH]c4ccc(NC(=O)C(c5ccsc5)N5CCCC5)cc34)ccc21 (centres unmarked) [Example A17, N-(3-(4-methyl-3,4-dihydro-2H-benzo[b][1,4]oxazin-7-yl)-1H-indazol-5-yl)-2-(pyrrolidin-1-yl)-2-(thiophen-3-yl)acetamide]
GI50: > 500 nM

COc1cc(-c2n[nH]c3ccc(C(=O)NC(c4ccccc4)C4CC4)cc23)ccc1OC1CCN(C)CC1 (centres unmarked) [Example A19, N-(cyclopropyl(phenyl)methyl)-3-(3-methoxy-4-((1-methylpiperidin-4-yl)oxy)phenyl)-1H-indazole-5-carboxamide]
GI50: 100 to 500 nM

O=C(Nc1ccc2[nH]nc(-c3ccc4c(c3)OCCCO4)c2c1)C(c1ccsc1)N1CCCC1 (centres unmarked) [Example A20, N-(3-(3,4-dihydro-2H-benzo[b][1,4]dioxepin-7-yl)-1H-indazol-5-yl)-2-(pyrrolidin-1-yl)-2-(thiophen-3-yl)acetamide]
GI50: 100 to 500 nM

COc1cc(-c2n[nH]c3ccc(NC(=O)C(c4ccsc4)N4CCCC4)cc23)ccc1OC1CCN(C)CC1 (centres unmarked) [Example A21, N-(3-(3-methoxy-4-((1-methylpiperidin-4-yl)oxy)phenyl)-1H -indazol-5-yl)-2-(pyrrolidin-1-yl)-2-(thiophen-3-yl)acetamide]
GI50: < 100 nM

O=C(Nc1ccc2[nH]nc(-c3ccc(N4CCOCC4)cc3)c2c1)C1CCCc2ccccc21 (centres unmarked) [Example A22, N-(3-(4-morpholinophenyl)-1H-indazol-5-yl)-1,2,3,4-tetrahydronaphthalene-1-carboxamide]
GI50: 100 to 500 nM

CN1CCC(Oc2ccc(-c3n[nH]c4ccc(C(=O)N[C@@H]5CCCc6ccccc65)cc34)cc2)CC1 [Example A26, (R)-3-(4-((1-methylpiperidin-4-yl)oxy)phenyl)-N-(1,2,3,4-tetrahydronaphthalen-1-yl)-1H-indazole-5-carboxamide]
GI50: 100 to 500 nM

O=C(Nc1ccc2[nH]nc(-c3ccc(OC4CCNCC4)cc3)c2c1)C(c1ccsc1)N1CCCC1 (centres unmarked) [Example A28, N-(3-(4-(piperidin-4-yloxy)phenyl)-1H-indazol-5-yl)-2-(pyrrolidin-1-yl)-2-(thiophen-3-yl)acetamide]
GI50: < 100 nM

CC(C)N1CCC(Oc2ccc(-c3n[nH]c4ccc(NC(=O)C(c5ccsc5)N5CCCC5)cc34)cc2)CC1 (centres unmarked) [Example A30, N-(3-(4-((1-isopropylpiperidin-4-yl)oxy)phenyl)-1H-indazol-5-yl)-2-(pyrrolidin-1-yl)-2-(thiophen-3-yl)acetamide]
GI50: < 100 nM

CN1CCC(Oc2ccc(-c3n[nH]c4ccc(NC(=O)C(c5ccsc5)N5CCCCC5)cc34)cc2)CC1 (centres unmarked) [Example A31, N-(3-(4-((1-methylpiperidin-4-yl)oxy)phenyl)-1H-indazol-5-yl)-2-(piperidin-1-yl)-2-(thiophen-3-yl)acetamide]
GI50: < 100 nM

O=C(Nc1ccc2[nH]nc(-c3ccc(N4CCOCC4)cc3)c2c1)C(c1ccsc1)N1CCCCC1 (centres unmarked) [Example A32, N-(3-(4-morpholinophenyl)-1H-indazol-5-yl)-2-(piperidin-1-yl)-2-(thiophen-3-yl)acetamide]
GI50: < 100 nM

CN1CCC(Oc2ccc(-c3n[nH]c4ccc(NC(=O)C(c5ccsc5)C5CCCC5)cc34)cc2)CC1 (centres unmarked) [Example A36, 2-cyclopentyl-N-(3-(4-((1-methylpiperidin-4-yl)oxy)phenyl)-1H-indazol-5-yl)-2-(thiophen-3-yl)acetamide]
GI50: < 100 nM

COC(C(=O)Nc1ccc2[nH]nc(-c3ccc(OC4CCN(C)CC4)cc3)c2c1)c1ccsc1 (centres unmarked) [Example A37, 2-methoxy-N-(3-(4-((1-methylpiperidin-4-yl)oxy)phenyl)-1H-indazol-5-yl)-2-(thiophen-3-yl)acetamide]
GI50: < 100 nM

C[C@H](NC(=O)c1ccc2[nH]nc(-c3ccc(OC4CCN(C)CC4)cc3)c2c1)C1CCCCC1 [Example A38, (S)-N-(1-cyclohexylethyl)-3-(4-((1-methylpiperidin-4-yl)oxy)phenyl)-1H-indazole-5-carboxamide]
GI50: < 100 nM

CN1CCC(Oc2ccc(-c3n[nH]c4ccc(NC(=O)C5c6ccccc6CCN5C)cc34)cc2)CC1 (centres unmarked) [Example A39, 2-methyl-N-(3-(4-((1-methylpiperidin-4-yl)oxy)phenyl)-1H -indazol-5-yl)-1,2,3,4-tetrahydroisoquinoline-1-carboxamide]
GI50: < 100 nM

C[C@H](NC(=O)c1ccc2[nH]nc(-c3ccc(N4CCOCC4)cc3)c2c1)C1CCCCC1 [Example A40, (S)-N-(1-cyclohexylethyl)-3-(4-morpholinophenyl)-1H-indazole-5-carboxamide]
GI50: 100 to 500 nM

CN(C)CCCOc1ccc(-c2n[nH]c3ccc(NC(=O)C(c4ccsc4)N4CCCC4)cc23)cc1 (centres unmarked) [Example A43, N-(3-(4-(3-(dimethylamino)propoxy)phenyl)-1H-indazol-5-yl)-2-(pyrrolidin-1-yl)-2-(thiophen-3-yl)acetamide]
GI50: < 100 nM

O=C(Nc1ccc2[nH]nc(-c3ccc(OCCN4CCCC4)cc3)c2c1)C(c1ccsc1)N1CCCC1 (centres unmarked) [Example A44, 2-(pyrrolidin-1-yl)-N-(3-(4-(2-(pyrrolidin-1-yl)ethoxy)phenyl)-1H-indazol-5-yl)-2-(thiophen-3-yl)acetamideamide]
GI50: < 100 nM

C[C@H]1CCCN1[C@H](C(=O)Nc1ccc2[nH]nc(-c3ccc(N4CCOCC4)cc3)c2c1)c1ccsc1 [Example A47, (S)-2-((S)-2-methylpyrrolidin-1-yl)-N-(3-(4-morpholinophenyl)-1H-indazol-5-yl)-2-(thiophen-3-yl)acetamide]
GI50: 100 to 500 nM

C[C@@H](NC(=O)c1ccc2[nH]nc(-c3ccc(N4CCOCC4)cc3)c2c1)C1CCCCC1 [Example A48, (R)-N-(1-cyclohexylethyl)-3-(4-morpholinophenyl)-1H-indazole-5-carboxamide]
GI50: > 500 nM

O=C(N[C@H](c1ccccc1)C1CC1)c1ccc2[nH]nc(-c3ccc(N4CCOCC4)cc3)c2c1 [Example A49, (S)-N-(cyclopropyl(phenyl)methyl)-3-(4-morpholinophenyl)-1H-indazole-5-carboxamide]
GI50: 100 to 500 nM

O=C(N[C@@H](c1ccccc1)C1CC1)c1ccc2[nH]nc(-c3ccc(N4CCOCC4)cc3)c2c1 [Example A51, (R)-N-(cyclopropyl(phenyl)methyl)-3-(4-morpholinophenyl)-1H-indazole-5-carboxamide]
GI50: 100 to 500 nM

C[C@@H](NC(=O)c1ccc2[nH]nc(-c3ccc(N4CCOCC4)cc3)c2c1)c1cccs1 [Example A53, (R)-3-(4-morpholinophenyl)-N-(1-(thiophen-2-yl)ethyl)-1H-indazole-5-carboxamide]
GI50: 100 to 500 nM

C[C@@H](NC(=O)c1ccc2[nH]nc(-c3ccc(OC4CCN(C)CC4)cc3)c2c1)c1cccs1 [Example A55, (R)-3-(4-((1-methylpiperidin-4-yl)oxy)phenyl)-N-(1-(thiophen-2-yl)ethyl)-1H-indazole-5-carboxamide]
GI50: < 100 nM

CC[C@@H](NC(=O)c1ccc2[nH]nc(-c3ccc(N4CCOCC4)cc3)c2c1)c1cccs1 [Example A58, (R)-3-(4-morpholinophenyl)-N-(1-(thiophen-2-yl)propyl)-1H-indazole-5-carboxamide]
GI50: 100 to 500 nM

CN1CCC(Oc2ccc(-c3n[nH]c4ccc(NC(=O)Nc5ccccc5Cl)cc34)cc2)CC1 [Example A62, 1-(2-chlorophenyl)-3-(3-(4-((1-methylpiperidin-4-yl)oxy)phenyl)-1H-indazol-5-yl)urea]
GI50: > 500 nM
